{"source": "patent EP4563146A1", "about": "(IRBM S.P.A., priority 2023, dated 2025)", "data": [{"test_system": "ZIKV replicon", "assay": "ZIKV replication inhibition assay (NanoLuc replicon in Vero cells)", "conditions": "Zika virus, Vero, 72 h, read-out: ZIKA Cell_Nanoluc", "units": {"EC50": "µM"}, "values": [{"smiles": "N[C@H]1CC[C@H](C[n+]2cc([N-]C(=O)Nc3cc(N4CCC(c5ccccc5)C4=O)cc(C(F)(F)F)c3)on2)CC1", "note": "(stereo partly drawn) [Example 132, (3-(((1R,4R)-4-Aminocyclohexyl)methyl)-1,2,3-oxadiazol-3-ium-5-yl)((3-(2-oxo-3-phenylpyrrolidin-1-yl)-5-(trifluoromethyl)-phenyl)carbamoyl)amide]", "EC50": "> 20"}, {"smiles": "NC[C@H]1CC[C@@H](C[n+]2cc([N-]C(=O)Nc3cc(N4CCC(c5ccccc5)C4=O)cc(C(F)(F)F)c3)on2)CC1", "note": "(stereo partly drawn) [Example 133, (3-(((1S,4S)-4-(Aminomethyl)cyclohexyl)-methyl)-1,2,3-oxadiazol-3-ium-5-yl)((3-(2-oxo-3-phenylpyrrolidin-1-yl)-5-(trifluoromethyl)-phenyl)carbamoyl)amide]", "EC50": "1 to 20"}, {"smiles": "O=C([N-]c1c[n+](C[C@H]2CC[C@@H](NCC(F)(F)F)CC2)no1)Nc1cc(N2CCC(c3ccccc3)C2=O)cc(C(F)(F)F)c1", "note": "(stereo partly drawn) [Example 136, ((3-(2-Oxo-3-phenylpyrrolidin-1-yl)-5-(trifluoromethyl)phenyl)carbamoyl)(3-(((1s,4s)-4-((2,2,2-trifluoroethyl)amino)cyclohexyl)methyl)-1,2,3-oxadiazol-3-ium-5-yl)amide]", "EC50": "0.1 to 1"}, {"smiles": "O=C([N-]c1c[n+](C[C@H]2CC[C@H](NCC(F)(F)F)CC2)no1)Nc1cc(N2CCC(c3ccccc3)C2=O)cc(C(F)(F)F)c1", "note": "(stereo partly drawn) [Example 137, ((3-(2-Oxo-3-phenylpyrrolidin-1-yl)-5-(trifluoromethyl)phenyl)carbamoyl)(3-(((1R,4R)-4-((2,2,2-trifluoroethyl)amino)-cyclohexyl)methyl)-1,2,3-oxadiazol-3-ium-5-yl)amide]", "EC50": "0.1 to 1"}, {"smiles": "O=C([N-]c1c[n+](C[C@H]2CC[C@H](NC(=O)C(F)(F)F)CC2)no1)Nc1cc(N2CC[C@H](c3ccccc3)C2=O)cc(C(F)(F)F)c1", "note": "[Example 145, ((3-((R)-2-Oxo-3-phenylpyrrolidin-1-yl)-5-(trifluoromethyl)phenyl)carbamoyl)(3-(((1R,4R)-4-(2,2,2-trifluoroacetamido)cyclohexyl)methyl)-1,2,3-oxadiazol-3-ium-5-yl)amide]", "EC50": "1 to 20"}, {"smiles": "CN(CC(F)(F)F)[C@H]1CC[C@H](C[n+]2cc([N-]C(=O)Nc3cc(N4CC[C@H](c5ccccc5)C4=O)cc(C(F)(F)F)c3)on2)CC1", "note": "[Example 146, (3-(((1R,4R)-4-(Methyl(2,2,2-trifluoroethyl)-amino)cyclohexyl)methyl)-1,2,3-oxadiazol-3-ium-5-yl)((3-((R)-2-oxo-3-phenylpyrrolidin-1-yl)-5-(trifluoromethyl)phenyl)carbamoyl)amide]", "EC50": "0.1 to 1"}]}, {"test_system": "ZIKV replicon", "assay": "ZIKV replication inhibition assay (NanoLuc replicon in Vero cells)", "conditions": "Zika virus, Vero, 72 h, read-out: ZIKA Cell_Nanoluc, Vero cells with stable ZIKV replicon, 72 h, Nano-Glo readout", "units": {"EC50": "µM"}, "values": [{"smiles": "O=C(Cc1ccccc1)Nc1cc(NC(=O)[N-]c2c[n+](CC3CC(NCc4ccc(O)cn4)C3)no2)cc(C(F)(F)F)c1", "note": "(stereo not drawn) [Example 134, (3-((3-(((5-Hydroxypyridin-2-yl)methyl)amino)-cyclobutyl)methyl)-1,2,3-oxadiazol-3-ium-5-yl)((3-(2-phenylacetamido)-5-(trifluoromethyl)-phenyl)carbamoyl)amide]", "EC50": "> 20"}, {"smiles": "CCOC(=O)CN1CCC(C[n+]2cc([N-]C(=O)Nc3cc(NC(=O)Cc4ccccc4)cc(C(F)(F)F)c3)on2)CC1", "note": "[Example 140, (3-((1-(2-Ethoxy-2-oxoethyl)piperidin-4-yl)methyl)-1,2,3-oxadiazol-3-ium-5-yl)((3-(2-phenylacetamido)-5-(trifluoromethyl)phenyl)-carbamoyl)amide]", "EC50": "0.1 to 1"}, {"smiles": "O=C(Cc1ccccc1)Nc1cc(NC(=O)[N-]c2c[n+](CC3CCN(CCO)CC3)no2)cc(C(F)(F)F)c1", "note": "[Example 141, (3-((1-(2-Hydroxyethyl)piperidin-4-yl)methyl)-1,2,3-oxadiazol-3-ium-5-yl)((3-(2-phenylacetamido)-5-(trifluoromethyl)phenyl)-carbamoyl)amide]", "EC50": "1 to 20"}]}]}
